Results as given in patent publication US20250170248A1, “SMARCA DEGRADERS AND USES THEREOF” (Kymera Therapeutics, Inc., priority 2021, published 2025).

Legend:
SMARCA4 = target: T1, SMARCA4 (Homo sapiens, UniProt P51532); assay: SMARCA4 Western blot degradation in MV4-11 cells; format: cell-based; details: for Dmax: MV4-11, MV4-11 cells, read-out: SMARCA4 MSD MV411 degradation 24 h: average Dmax %; for Dmax / DC50: 24 h; for DC50 / SMARCA4 MSD MV411 degradation 24 h: average Dmax %: MV4-11 cells; for DC50: read-out: SMARCA4 MSD MV411 degradation 24 h: Mean external-Abs DC50
T1 construct: SMARCA2/SMARCA4 protein degradation selectivity in MV4-11 cells; endogenous in cells; host or cells: MV4-11
T1 sequence (P51532 whole entry): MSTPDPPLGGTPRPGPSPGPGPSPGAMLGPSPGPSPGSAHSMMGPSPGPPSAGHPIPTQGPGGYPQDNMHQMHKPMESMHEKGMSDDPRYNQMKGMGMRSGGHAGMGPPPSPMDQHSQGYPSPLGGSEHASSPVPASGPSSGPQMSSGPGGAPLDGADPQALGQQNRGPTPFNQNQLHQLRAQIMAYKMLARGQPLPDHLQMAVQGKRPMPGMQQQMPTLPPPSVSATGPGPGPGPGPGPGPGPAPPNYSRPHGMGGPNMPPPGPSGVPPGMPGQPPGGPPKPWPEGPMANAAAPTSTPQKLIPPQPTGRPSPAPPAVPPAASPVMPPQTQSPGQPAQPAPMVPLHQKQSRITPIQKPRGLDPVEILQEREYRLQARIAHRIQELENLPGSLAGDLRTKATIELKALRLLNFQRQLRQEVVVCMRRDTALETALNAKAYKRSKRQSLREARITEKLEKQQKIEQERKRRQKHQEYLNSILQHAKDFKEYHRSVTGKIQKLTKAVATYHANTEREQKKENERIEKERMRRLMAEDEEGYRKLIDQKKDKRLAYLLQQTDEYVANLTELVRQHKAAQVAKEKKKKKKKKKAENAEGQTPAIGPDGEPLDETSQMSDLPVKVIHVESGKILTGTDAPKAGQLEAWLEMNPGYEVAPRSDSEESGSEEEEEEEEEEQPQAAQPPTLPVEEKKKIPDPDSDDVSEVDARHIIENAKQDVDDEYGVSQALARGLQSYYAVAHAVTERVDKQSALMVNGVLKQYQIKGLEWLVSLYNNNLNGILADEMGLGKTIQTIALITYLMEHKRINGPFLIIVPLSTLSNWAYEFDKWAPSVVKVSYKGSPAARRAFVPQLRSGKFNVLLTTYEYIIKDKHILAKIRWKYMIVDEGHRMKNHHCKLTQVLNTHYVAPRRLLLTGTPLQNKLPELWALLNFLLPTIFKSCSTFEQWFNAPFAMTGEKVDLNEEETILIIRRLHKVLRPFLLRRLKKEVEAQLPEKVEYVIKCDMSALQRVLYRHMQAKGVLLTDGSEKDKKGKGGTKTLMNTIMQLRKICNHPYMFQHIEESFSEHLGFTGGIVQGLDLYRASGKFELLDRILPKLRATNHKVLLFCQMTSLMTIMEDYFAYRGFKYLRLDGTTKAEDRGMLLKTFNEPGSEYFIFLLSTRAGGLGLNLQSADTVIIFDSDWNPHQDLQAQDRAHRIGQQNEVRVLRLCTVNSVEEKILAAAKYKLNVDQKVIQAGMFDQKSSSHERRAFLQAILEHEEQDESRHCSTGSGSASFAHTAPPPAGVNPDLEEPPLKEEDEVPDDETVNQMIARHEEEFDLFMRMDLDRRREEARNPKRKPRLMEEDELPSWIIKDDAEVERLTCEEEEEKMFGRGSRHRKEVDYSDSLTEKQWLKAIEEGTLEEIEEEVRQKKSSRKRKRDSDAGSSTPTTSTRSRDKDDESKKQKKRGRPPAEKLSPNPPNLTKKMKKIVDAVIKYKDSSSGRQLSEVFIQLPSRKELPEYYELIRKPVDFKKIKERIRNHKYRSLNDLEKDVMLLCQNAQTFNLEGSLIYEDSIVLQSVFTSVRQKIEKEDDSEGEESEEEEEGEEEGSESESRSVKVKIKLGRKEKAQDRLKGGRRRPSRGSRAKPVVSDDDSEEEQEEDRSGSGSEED
Method: Example 11. SMARCA2 and SMARCA4 Western Blot MV4-11 Degradation
Cells were seeded into 6-well plates (MV4-11:4×10^6 cells/well/1 ml) and 1 ml of 2× compound solution was added into the well to make the final concentration and the plates were mixed well and incubated for 24 hours (No cytotoxicity was observed). The cell were collected with media and spun at 3000 rpm for 5 minutes. The supernatant was aspirated and the well and the cells were washed with cold PBS once and combined for centrifugation again; the supernatant aspirated again. 200 uL pre-chilled RIPA lysis buffer (Boston BioProducts BP-115D) with protease/phosphatase inhibitor (Roche 05892791001/Roche 04906837001) was directly added into the tube to lyze the cells for 20 minutes on ice. The cell lysate were collected into EP tubes and spun at 13000 rpm for 20 minutes and 72 uL supernatant was transferred to a fresh EP tube containing 18 μL of 5× loading buffer (Beyotime Bio P0015) to make the loading samples. The samples were heated to 100° C. for 10 minutes and cooled to RT and microcentrifuged. 20 μL of samples were loaded onto SDS-PAGE gel (Novex, WG1402BOX) and the gel was run at 80 V for 20 minutes and 120 V for 1.5 hours. The samples were electrotransfer to a NC membrane using wet-transfer method with 250 mA for 2.5 hours. The membrane was blocked with LICOR blocking buffer (LI COR,927-50000) for 1 hour. The membrane was washed three times with TBST(CST #9997S), 5 minutes each. Incubation was performed with primary antibody prepared in blocking buffer with 0.1% Tween-20 (Solarbio, P8220) at 4° C. overnight (Anti-SMARCA2/BRM antibody (ab15597) 1:500; Anti-BRG1 antibody [EPR3912](ab108318) 1:1000; Rabbit anti-Bafl80 antibody [EPR15860](Abcam,ab196022) 1:1000; mouse anti-beta-Actin (8H10D10) (CST #3700) 1:10000). The membrane was washed three times with TBST, 5 minutes each. Incubation with secondary antibody was performed for 1 hour at RT (anti-rabbit IgG (Licor,926-32211) 1:5000; anti-mouse IgG (LI-COR, 926-68070) 1:5000). The membrane was washed three times with 5 minutes each and lastly the LiCOR was read.
The letter codes for SMARCA2/4 degradation potency (DC50) include: A (<1 nM), B (1-10 nM), C (>10-100 nM), and D (>100 nM). The letter codes for the percentage of SMARCA2/4 degradation after 24 hours (Dmax %) include: A (>90% degradation), B (>70-90% degradation), C (50-70% degradation), and D (<50% degradation). The letter codes of SMARCA2/4 selectivity include: A (>500 fold), B (>100-500 fold), C (10-100 fold), and D (<10 fold). Table 8. SMARCA2/4 Selectivity Results

SMARCA2 = SMARCA2 (Homo sapiens, UniProt P51531); assay: SMARCA2 Western blot degradation in MV4-11 cells; format: cell-based; design: SMARCA2/SMARCA4 protein degradation selectivity in MV4-11 cells; endogenous in cells; host or cells: MV4-11; details: for Dmax: MV4-11, MV4-11 cells, read-out: SMARCA2 MSD MV411 degradation 24 h: average Dmax %; for Dmax / DC50 / SMARCA2 MSD MV411 degradation 24 h: average Dmax %: 24 h; for DC50 / Selectivity in MV411 / SMARCA2 MSD MV411 degradation 24 h: average Dmax %: MV4-11 cells; for DC50: read-out: SMARCA2 MSD MV411 degradation 24 h: Mean external-Abs DC50; for Selectivity in MV411: SMARCA2/4 selectivity
Chain of SMARCA2 (P51531 whole entry): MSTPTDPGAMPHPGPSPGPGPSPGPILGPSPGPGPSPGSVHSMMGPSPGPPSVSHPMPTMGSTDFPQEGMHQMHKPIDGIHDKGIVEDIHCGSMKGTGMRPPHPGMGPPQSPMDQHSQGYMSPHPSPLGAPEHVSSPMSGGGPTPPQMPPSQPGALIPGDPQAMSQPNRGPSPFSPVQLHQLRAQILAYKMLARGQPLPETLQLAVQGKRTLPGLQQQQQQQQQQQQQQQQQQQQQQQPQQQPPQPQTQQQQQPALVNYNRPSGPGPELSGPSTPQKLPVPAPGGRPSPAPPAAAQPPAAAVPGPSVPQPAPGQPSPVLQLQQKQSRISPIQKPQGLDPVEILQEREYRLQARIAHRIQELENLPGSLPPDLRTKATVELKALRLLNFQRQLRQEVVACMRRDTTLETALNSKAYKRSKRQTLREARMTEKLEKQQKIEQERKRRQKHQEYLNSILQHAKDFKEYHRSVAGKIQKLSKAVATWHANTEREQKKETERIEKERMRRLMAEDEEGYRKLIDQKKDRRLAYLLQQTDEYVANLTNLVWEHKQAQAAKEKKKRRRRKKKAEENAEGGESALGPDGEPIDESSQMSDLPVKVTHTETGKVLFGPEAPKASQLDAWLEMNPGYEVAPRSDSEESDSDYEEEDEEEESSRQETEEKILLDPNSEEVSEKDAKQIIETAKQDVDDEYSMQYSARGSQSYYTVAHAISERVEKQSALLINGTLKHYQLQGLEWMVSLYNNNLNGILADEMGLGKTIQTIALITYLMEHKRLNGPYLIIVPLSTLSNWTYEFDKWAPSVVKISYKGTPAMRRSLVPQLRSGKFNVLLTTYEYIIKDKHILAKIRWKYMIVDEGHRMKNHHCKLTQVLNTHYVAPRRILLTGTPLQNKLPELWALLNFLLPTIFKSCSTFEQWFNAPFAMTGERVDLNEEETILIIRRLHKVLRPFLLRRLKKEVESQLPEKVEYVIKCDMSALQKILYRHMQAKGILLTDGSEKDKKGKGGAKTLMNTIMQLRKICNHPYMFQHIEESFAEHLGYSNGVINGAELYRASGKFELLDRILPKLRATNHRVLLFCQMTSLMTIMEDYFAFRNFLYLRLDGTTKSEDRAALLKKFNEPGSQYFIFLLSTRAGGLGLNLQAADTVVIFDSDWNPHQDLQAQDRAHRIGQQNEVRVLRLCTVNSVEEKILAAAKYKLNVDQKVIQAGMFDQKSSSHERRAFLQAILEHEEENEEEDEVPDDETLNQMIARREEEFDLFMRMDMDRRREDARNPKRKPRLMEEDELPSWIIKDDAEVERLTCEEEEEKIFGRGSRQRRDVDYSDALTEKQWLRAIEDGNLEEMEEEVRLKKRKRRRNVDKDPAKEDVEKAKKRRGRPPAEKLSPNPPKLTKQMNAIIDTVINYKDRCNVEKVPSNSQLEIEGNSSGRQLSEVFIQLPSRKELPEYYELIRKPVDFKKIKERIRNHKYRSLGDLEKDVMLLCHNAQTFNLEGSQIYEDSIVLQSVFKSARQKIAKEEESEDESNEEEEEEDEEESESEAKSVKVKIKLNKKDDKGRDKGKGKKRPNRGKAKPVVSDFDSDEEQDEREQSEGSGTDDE

Structure (SMILES)	Dmax (SMARCA4) [%]	DC50 (SMARCA4) [nM]	Dmax (SMARCA2) [%]	DC50 (SMARCA2) [nM]	Selectivity in MV411 (SMARCA2)	SMARCA4 MSD MV411 degradation 24 h: average Dmax % (SMARCA4)	SMARCA2 MSD MV411 degradation 24 h: average Dmax % (SMARCA2)
C#Cc1ccc(CNC(=O)[C@@H]2C[C@@H](O)CN2C(=O)[C@@H](NC(=O)[C@H]2CCC3(CC2)C[C@H](N2CCC(c4cnc(N5CCN6c7cc(-c8ccccc8O)nnc7NC[C@H]6C5)nc4)CC2)C3)C(C)(C)C)cc1 (single isomer, unassigned) [I-25]	70 to 90	10 to 100	70 to 90	< 1	C (C (10-100 fold))	–	–
C#Cc1ccc(CNC(=O)[C@@H]2C[C@@H](O)CN2C(=O)[C@@H](NC(=O)[C@H]2CCC3(CC2)C[C@H](N2CCC(c4cnc(N5CCN6c7cc(-c8ccccc8O)nnc7NC[C@H]6C5)nc4)CC2)C3)C(C)(C)C)cc1 (single isomer, unassigned) [I-26]	–	> 100	–	1 to 10	B (B (>100-500 fold))	C (C (50-70% degradation))	B (B (>70-90% degradation))
Cc1ncsc1-c1ccc(CNC(=O)[C@@H]2C[C@@H](O)CN2C(=O)[C@@H](NC(=O)C2(F)CC2)C(C)(C)C)c(OC2CCN(Cc3cnc(N4CCc5[nH]c6nnc(-c7ccccc7O)cc6c5[C@H]4C)nc3)CC2)c1 (single isomer, unassigned) [I-42]	70 to 90	> 100	50 to 70	10 to 100	C (C (10-100 fold))	–	–
Cc1ncsc1-c1ccc(CNC(=O)[C@@H]2C[C@@H](O)CN2C(=O)[C@@H](NC(=O)C2(F)CC2)C(C)(C)C)c(OC2CCN(Cc3cnc(N4CCc5[nH]c6nnc(-c7ccccc7O)cc6c5[C@@H]4C)nc3)CC2)c1 (single isomer, unassigned) [I-43]	< 50	> 100	< 50	> 100	C (C (10-100 fold))	–	–
Cc1ncsc1-c1ccc(CNC(=O)[C@@H]2C[C@@H](O)CN2C(=O)[C@@H](NC(=O)C2(F)CC2)C(C)(C)C)c(OCCCCN2CCN(c3cnc(N4CCN5c6cc(-c7ccccc7O)nnc6NC[C@H]5C4)nc3)CC2)c1 (single isomer, unassigned) [I-45]	> 90	1 to 10	> 90	< 1	D (D (<10 fold))	–	–
Cc1ncsc1-c1ccc(CNC(=O)[C@@H]2C[C@@H](O)CN2C(=O)[C@@H](NC(=O)C2(F)CC2)C(C)(C)C)c(OCCCCN2CCC(c3ccnc(N4CCN5c6cc(-c7ccccc7O)nnc6NC[C@H]5C4)n3)CC2)c1 (single isomer, unassigned) [I-46]	> 90	1 to 10	> 90	< 1	D (D (<10 fold))	–	–
Cc1ncsc1-c1ccc(CNC(=O)[C@@H]2C[C@@H](O)CN2C(=O)[C@H](c2cc(N3CC4(CC(N5CCC(c6cnc(N7CCN8c9cc(-c%10ccccc%10O)nnc9NC[C@H]8C7)nc6)CC5)C4)C3)no2)C(C)C)cc1 (single isomer, unassigned) [I-54]	70 to 90	10 to 100	> 90	1 to 10	C (C (10-100 fold))	–	–
Cc1ncsc1-c1ccc(CNC(=O)[C@@H]2C[C@@H](O)CN2C(=O)[C@@H](c2cc(N3CC4(CC(N5CCC(c6cnc(N7CCN8c9cc(-c%10ccccc%10O)nnc9NC[C@H]8C7)nc6)CC5)C4)C3)no2)C(C)C)cc1 (single isomer, unassigned) [I-55]	> 90	< 1	> 90	< 1	D (D (<10 fold))	–	–
C#Cc1ccc([C@H](C)NC(=O)[C@@H]2C[C@@H](O)CN2C(=O)[C@@H](NC(=O)[C@H]2CCC3(CC2)C[C@H](N2CCC(c4cnc(N5CCN6c7cc(-c8ccccc8O)nnc7NC[C@H]6C5)nc4)CC2)C3)C(C)(C)C)cc1 (single isomer, unassigned) [I-56]	50 to 70	> 100	70 to 90	1 to 10	A (A (>500 fold))	–	–
C#Cc1ccc([C@H](C)NC(=O)[C@@H]2C[C@@H](O)CN2C(=O)[C@@H](NC(=O)[C@H]2CCC3(CC2)C[C@H](N2CCC(c4cnc(N5CCN6c7cc(-c8ccccc8O)nnc7NC[C@H]6C5)nc4)CC2)C3)C(C)(C)C)cc1 (single isomer, unassigned) [I-57]	–	> 100	–	1 to 10	B (B (>100-500 fold))	D (D (<50% degradation))	B (B (>70-90% degradation))
Cc1ncsc1-c1ccc(CNC(=O)[C@@H]2C[C@@H](O)CN2C(=O)[C@@H](NC(=O)[C@H]2CC3(CC[C@H](N4CCC(c5cnc(N6CCN7c8cc(-c9ccccc9O)nnc8NC[C@H]7C6)nc5)CC4)CC3)C2)C(C)(C)C)cc1 (single isomer, unassigned) [I-65]	70 to 90	10 to 100	> 90	1 to 10	C (C (10-100 fold))	–	–
Cc1ncsc1-c1ccc(CNC(=O)[C@@H]2C[C@@H](O)CN2C(=O)[C@@H](NC(=O)[C@H]2CC3(CC[C@H](N4CCC(c5cnc(N6CCN7c8cc(-c9ccccc9O)nnc8NC[C@H]7C6)nc5)CC4)CC3)C2)C(C)(C)C)cc1 (single isomer, unassigned) [I-66]	–	> 100	–	10 to 100	B (B (>100-500 fold))	D (D (<50% degradation))	B (B (>70-90% degradation))
Cc1ncsc1-c1ccc(CNC(=O)[C@@H]2C[C@@H](O)CN2C(=O)[C@@H](NC(=O)[C@H]2CCC3(CC2)C[C@H](N2CCC(c4cnc(N5CCN6c7cc(-c8ccccc8O)nnc7NC[C@H]6C5)nc4)CC2)C3)C(C)(C)C)cc1 (single isomer, unassigned) [I-70]	< 50	> 100	70 to 90	1 to 10	A (A (>500 fold))	–	–
CC(C)C(C(=O)N1C[C@H](O)C[C@H]1C(=O)NCc1ccc(Cl)cc1)c1cc(N2CC3(CC(N4CCC(c5cnc(N6CCN7c8cc(-c9ccccc9O)nnc8NC[C@H]7C6)nc5)CC4)C3)C2)no1 (stereo partly shown) [I-17]	< 50	> 100	< 50	> 100	C (C (10-100 fold))	–	–
CC(C)C(C(=O)N1C[C@H](O)C[C@H]1C(=O)NCc1ccc(C#N)cc1)c1cc(N2CC3(CC(N4CCC(c5cnc(N6CCN7c8cc(-c9ccccc9O)nnc8NC[C@H]7C6)nc5)CC4)C3)C2)no1 (stereo partly shown) [I-20]	< 50	> 100	< 50	> 100	C (C (10-100 fold))	–	–
C#Cc1ccc(CNC(=O)[C@@H]2C[C@@H](O)CN2C(=O)[C@@H](NC(=O)[C@H]2CC[C@H](c3ccc(-c4cnc(N5CCN6c7cc(-c8ccccc8O)nnc7NC[C@H]6C5)nc4)cc3)CC2)C(C)(C)C)cc1 [I-23]	< 50	> 100	70 to 90	10 to 100	C (C (10-100 fold))	–	–
C#Cc1ccc(CNC(=O)[C@@H]2C[C@@H](O)CN2C(=O)[C@@H](NC(=O)[C@H]2CC[C@@H](c3ccc(-c4cnc(N5CCN6c7cc(-c8ccccc8O)nnc7NC[C@H]6C5)nc4)cc3)CC2)C(C)(C)C)cc1 [I-24]	> 90	1 to 10	> 90	< 1	D (D (<10 fold))	–	–
